Source: ChEMBL document CHEMBL5727158, “Rho-associated protein kinase inhibitor, pharmaceutical composition comprising the same, as well as preparation method and use thereof” (2019)
pIC50: −log10 of the molar value.

Target: Rho-associated protein kinase 2 (Homo sapiens, UniProt O75116)
Experiment: Biological Assay: The kinase IC50 was determined by a commercialized CISBIO kinase detection kit, HTRF KinEASE-STK S2 kit (62ST2PEC). ROCK2 (01-119) employed in the reaction was purchased from Carna Biosciences.Before the assay, the following working solutions as needed were formulated with corresponding reagents according to the instruction of the kinase detection kit: 1×kinase buffer, 5×STK-52 substrate working solution (1.5 μM) and 5×ATP working solution (1.5 μM), 5×ROCK2 kinase working solution, 4×Streptavidin-XL665 working solution, and 4×STK-Ab-Cryptate 2 detection solution. Then the assay was performed according to the following procedure.A solution of a compound at a concentration of 10000 nM was prepared with the 1×kinase buffer containing 2.5% DMSO. Gradient dilution of the solution of the compound was performed with the kinase buffer containing DMSO, so as to obtain solutions of a test compound at 9 different concentrations. In addition to wells of test compounds, a positive well (containing all the reagents except the compound) and a negative well (containing all the reagents except the test compound and kinase) were set. Except for the control wells (positive and negative wells), a solution of a test compound (4 μL) was added to each of the reaction wells, and a solution of 2.5% DMSO was added to the control wells. […]

Chain of Rho-associated protein kinase 2 (O75116 whole entry): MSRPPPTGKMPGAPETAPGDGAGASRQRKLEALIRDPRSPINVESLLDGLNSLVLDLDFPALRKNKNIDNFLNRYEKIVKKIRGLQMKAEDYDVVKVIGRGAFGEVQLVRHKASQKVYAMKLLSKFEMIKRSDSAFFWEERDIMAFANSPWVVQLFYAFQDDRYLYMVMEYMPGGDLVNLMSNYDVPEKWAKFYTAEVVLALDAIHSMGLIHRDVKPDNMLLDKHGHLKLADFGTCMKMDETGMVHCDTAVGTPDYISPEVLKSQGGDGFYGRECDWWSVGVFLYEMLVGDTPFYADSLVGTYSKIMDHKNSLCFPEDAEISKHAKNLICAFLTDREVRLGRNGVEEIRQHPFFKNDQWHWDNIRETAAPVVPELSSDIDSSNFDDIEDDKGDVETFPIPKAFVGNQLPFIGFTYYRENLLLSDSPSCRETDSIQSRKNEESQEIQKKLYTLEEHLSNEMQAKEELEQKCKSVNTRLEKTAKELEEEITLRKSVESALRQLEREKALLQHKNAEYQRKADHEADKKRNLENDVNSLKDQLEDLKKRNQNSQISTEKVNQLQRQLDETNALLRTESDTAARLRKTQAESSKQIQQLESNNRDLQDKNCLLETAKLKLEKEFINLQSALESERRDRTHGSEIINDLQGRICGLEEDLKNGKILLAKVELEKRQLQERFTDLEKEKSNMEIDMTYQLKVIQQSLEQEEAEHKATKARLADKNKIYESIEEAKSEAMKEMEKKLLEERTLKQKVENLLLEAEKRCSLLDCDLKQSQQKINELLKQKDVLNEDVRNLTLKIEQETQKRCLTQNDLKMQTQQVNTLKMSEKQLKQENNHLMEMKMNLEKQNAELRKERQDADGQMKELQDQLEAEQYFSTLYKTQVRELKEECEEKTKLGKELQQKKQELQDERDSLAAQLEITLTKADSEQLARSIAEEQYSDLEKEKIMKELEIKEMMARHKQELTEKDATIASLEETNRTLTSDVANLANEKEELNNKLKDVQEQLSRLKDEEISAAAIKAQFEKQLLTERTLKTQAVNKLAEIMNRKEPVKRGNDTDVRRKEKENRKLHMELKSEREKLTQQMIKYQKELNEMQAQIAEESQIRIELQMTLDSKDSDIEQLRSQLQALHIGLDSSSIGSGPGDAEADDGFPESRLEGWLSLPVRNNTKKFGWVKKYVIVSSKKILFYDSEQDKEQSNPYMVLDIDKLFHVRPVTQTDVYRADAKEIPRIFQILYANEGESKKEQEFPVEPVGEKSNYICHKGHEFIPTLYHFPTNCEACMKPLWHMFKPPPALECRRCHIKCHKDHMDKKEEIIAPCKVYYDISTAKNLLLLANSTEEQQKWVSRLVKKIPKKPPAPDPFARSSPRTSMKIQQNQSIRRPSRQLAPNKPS

Q: `O=C(Nc1ccc(-c2cn[nH]c2)cc1)c1cc2ccc(-c3nccc(Nc4ccc5[nH]ncc5c4)n3)cc2[nH]1` was tested. Which pIC50 did it give?
A: 7.15
